Among the data in PubChem BioAssay (NCI) are TGI values, retold here.

Some test systems named below: CCRF-CEM leukemia; HCC-2998 colon; HL-60(TB) leukemia; HOP-92 NSCLC; IGROV1 ovarian; SK-MEL-2 melanoma; T-47D breast; TK-10 renal; UACC-257 melanoma; UACC-62 melanoma.
Assay in all cases: NCI anticancer screen, dose series, 48 h

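These data come from cells grown in 96-well plates and exposed to compound for 48 hours at five concentrations. Definition used: TGI = concentration required for complete inhibition of growth.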

With `CCOC(=O)c1nc(SC)sc1NC(=O)c1ccc(OC)cc1`, the TGI in the experiment with CCRF-CEM leukemia, with HCC-2998 colon, in the experiment with HL-60(TB) leukemia, in the experiment on HOP-92 NSCLC, in the experiment on IGROV1 ovarian and in the experiment with SK-MEL-2 melanoma was above 100 µM each time. Further, the TGI with T-47D breast is above 100 µM; with TK-10 renal, 54.7 µM; with UACC-257 melanoma, above 100 µM; in the experiment with UACC-62 melanoma, above 100 µM.
Turning to `CC(=O)N1N=C(c2ccccc2)NC(=O)C1c1cc(C)c(O)c(C)c1` (stereo not given), the TGI with CCRF-CEM leukemia is above 100 µM; in the experiment on HCC-2998 colon it was 45.9 µM; with HL-60(TB) leukemia, above 100 µM; in the experiment with HOP-92 NSCLC, 38.8 µM; in the experiment on IGROV1 ovarian it was 72.7 µM; with SK-MEL-2 melanoma, 72.2 µM. In addition, the TGI in the experiment on T-47D breast was 42 µM; with TK-10 renal, 38.2 µM; with UACC-257 melanoma it was 96.7 µM; with UACC-62 melanoma, 40 µM.
Consider `O=[N+]([O-])C1=Cc2c(O)ccc(O)c2C2OC=CC12` (stereo not given), for which the TGI in the experiment with CCRF-CEM leukemia was above 26.8 µM; in the experiment on HCC-2998 colon it was above 57.8 µM; in the experiment on HL-60(TB) leukemia, above 30.4 µM; in the experiment with HOP-92 NSCLC it was 58.8 µM; with IGROV1 ovarian, 45.4 µM; in the experiment with SK-MEL-2 melanoma it was 41 µM. The TGI with T-47D breast was above 71.9 µM; with TK-10 renal it was 30.3 µM; in the experiment on UACC-257 melanoma, 29.9 µM; with UACC-62 melanoma, 15.9 µM.
Consider `COc1ccc(C2c3cc4c(cc3OC(N3CCOCC3)C2C)OCO4)cc1OC` (stereo not given), for which the TGI in the experiment on CCRF-CEM leukemia was 62.5 µM; in the experiment with HCC-2998 colon it was above 44.8 µM; with HL-60(TB) leukemia, above 29.1 µM; in the experiment with HOP-92 NSCLC, above 92.3 µM; in the experiment with IGROV1 ovarian it was above 100 µM; in the experiment with SK-MEL-2 melanoma it was 61.8 µM. Further, the TGI with T-47D breast was above 100 µM; in the experiment on TK-10 renal, above 88.8 µM; in the experiment with UACC-257 melanoma, above 100 µM; in the experiment on UACC-62 melanoma, above 82.9 µM.
For the compound `CCCCOC(=O)Nc1ccc(S(=O)(=O)Nc2c(Cl)cccc2Cl)cc1`, the TGI in the experiment with CCRF-CEM leukemia was above 100 µM; with HCC-2998 colon it was 43.4 µM; with HL-60(TB) leukemia it was above 100 µM; in the experiment on HOP-92 NSCLC, 75.7 µM; in the experiment with IGROV1 ovarian, 79.5 µM; with SK-MEL-2 melanoma, 66.8 µM. Also, the TGI in the experiment on T-47D breast is 83.8 µM; in the experiment with TK-10 renal it was 77.9 µM; in the experiment on UACC-257 melanoma it was above 100 µM; with UACC-62 melanoma it was 54.6 µM.
Take `CCCCOc1ccc(/C=C/C2=[N+](CCO)CCO2)cc1`: the TGI is 67.1 µM in the experiment on CCRF-CEM leukemia; 48.3 µM with HCC-2998 colon; 40.2 µM in the experiment on HL-60(TB) leukemia; above 100 µM with HOP-92 NSCLC; above 100 µM in the experiment on IGROV1 ovarian; above 100 µM with SK-MEL-2 melanoma. For the same compound, the TGI is 82.8 µM in the experiment on T-47D breast, above 100 µM in the experiment with TK-10 renal, above 100 µM in the experiment with UACC-257 melanoma and above 100 µM in the experiment with UACC-62 melanoma.
As to `c1ccc(CCCN2C3CCC2CN(CCOC(c2ccccc2)c2ccccc2)C3)cc1`, the TGI turned out to be 39.2 µM in the experiment with CCRF-CEM leukemia; 18 µM in the experiment with HCC-2998 colon; 23.1 µM in the experiment with HL-60(TB) leukemia; 25.5 µM in the experiment on HOP-92 NSCLC; 27 µM in the experiment on IGROV1 ovarian; 22.9 µM in the experiment with SK-MEL-2 melanoma. Further, the TGI in the experiment on T-47D breast amounted to 13.9 µM; in the experiment with TK-10 renal it was 25.6 µM; with UACC-257 melanoma it was 20.8 µM; in the experiment on UACC-62 melanoma, 25.5 µM.
As for `C[C@]12CCC(=O)C=C1CC[C@@H]1[C@@H]2CC[C@]2(C)C(=O)/C(=C/c3ccc([N+](=O)[O-])cc3)C[C@@H]12`, the TGI in the experiment with CCRF-CEM leukemia, in the experiment with HCC-2998 colon, in the experiment with HL-60(TB) leukemia, in the experiment on HOP-92 NSCLC, in the experiment with IGROV1 ovarian and with SK-MEL-2 melanoma was above 100 µM throughout. For the same compound, the TGI is above 100 µM with T-47D breast, above 100 µM with TK-10 renal, above 100 µM with UACC-257 melanoma and 46.2 µM with UACC-62 melanoma.
In the case of `CC1=NN(c2ccccc2)C(=O)/C1=C1\SC(c2ccccc2)(c2ccccc2)c2ccccc21`, the TGI in the experiment on CCRF-CEM leukemia, in the experiment on HCC-2998 colon, in the experiment with HL-60(TB) leukemia, in the experiment with HOP-92 NSCLC, in the experiment on IGROV1 ovarian and in the experiment with SK-MEL-2 melanoma was above 100 µM each time. The TGI in the experiment with T-47D breast, in the experiment with TK-10 renal, in the experiment on UACC-257 melanoma and in the experiment with UACC-62 melanoma was above 100 µM each time.
As for `CCOC(=O)N1CCC2(CC1)C[C@](Sc1ccccc1)(C(C)=O)[C@H](C)O2`, the TGI in the experiment on CCRF-CEM leukemia, in the experiment with HCC-2998 colon, in the experiment with HL-60(TB) leukemia, in the experiment on HOP-92 NSCLC, in the experiment on IGROV1 ovarian and in the experiment with SK-MEL-2 melanoma was above 100 µM throughout. In addition, the TGI in the experiment on T-47D breast, in the experiment on TK-10 renal, in the experiment on UACC-257 melanoma and in the experiment on UACC-62 melanoma was above 100 µM in each case.
With `COc1cc(/C=C2\CC3C4CC=C5C[C@@H](O)CC[C@]5(C)C4CC[C@]3(C)\C2=N\O)cc(OC)c1OC` (stereo not given in full), the TGI in the experiment with CCRF-CEM leukemia is above 100 µM; in the experiment on HCC-2998 colon it was 45 µM; in the experiment with HL-60(TB) leukemia, above 100 µM; with HOP-92 NSCLC, above 100 µM; with IGROV1 ovarian it was above 100 µM; in the experiment with SK-MEL-2 melanoma, 17.1 µM. In addition, the TGI was 18.8 µM with T-47D breast, above 100 µM in the experiment on TK-10 renal, 61.1 µM in the experiment with UACC-257 melanoma and 24 µM in the experiment on UACC-62 melanoma.
As to `Fc1ccc(/C=C2\COCC3=C2NC(=S)NC3c2ccc(F)cc2)cc1` (stereo not given), the TGI worked out at 45.7 µM with CCRF-CEM leukemia; 32.7 µM with HCC-2998 colon; 35.4 µM with HL-60(TB) leukemia; 34 µM in the experiment on HOP-92 NSCLC; 76.3 µM in the experiment with IGROV1 ovarian; 28.6 µM with SK-MEL-2 melanoma. Also, the TGI stood at 90.1 µM with T-47D breast, 45.5 µM with TK-10 renal, 34.2 µM in the experiment on UACC-257 melanoma and 32.4 µM in the experiment with UACC-62 melanoma.
With `COc1ccc(Nc2nc3ccccc3nc2-c2cccs2)cc1OC`, the TGI in the experiment on CCRF-CEM leukemia, with HCC-2998 colon, with HL-60(TB) leukemia, with HOP-92 NSCLC, in the experiment on IGROV1 ovarian and in the experiment with SK-MEL-2 melanoma was above 10 µM in each case. Besides, the TGI with T-47D breast, in the experiment on TK-10 renal, in the experiment on UACC-257 melanoma and in the experiment on UACC-62 melanoma was above 10 µM in each case.
